Results: US5185251A, “Microbial transformation of a substituted pyridinone using actinoplanacete sp. MA 6559” (Merck & Co., Inc., priority 1991, dated 1993)

Molecular target: T1, recombinant HIV reverse transcriptase (HIV RTR) (Human immunodeficiency virus type 1 group M subtype B, UniProt P04585)
T1 construct: recombinant HIV reverse transcriptase
Experiment: Reverse Transcriptase Assay (incorporation of tritiated deoxyguanosine monophosphate into acid-precipitable cDNA)
Format: biochemical
Details: for inhibition of incorporation of deoxyguanosine monophosphate by HIV reverse transcriptase (in words): at the Km values of dGTP and poly r(C).oligo d(G)12-18; for IC50: poly r(C).oligo d(G)12-18 template, dGTP at about Km, 37° C., 45 minutes, read-out: calculated IC50
Method: The assay measures the incorporation of tritiated deoxyguanosine monophosphate by recombinant HIV reverse transcriptase (HIV RTR) (or other RT) into acid-precipitable cDNA at the Km values of dGTP and poly r(C).oligo d(G)12-18.
Thirty uL of a reaction mixture containing equal volumes of: 500 mM Tris.HCl (pH 8.2), 300 mM MgCl2, 1200 mM KCl, 10 mM DTT, 400 μg/mL poly r(c).oligo d(G) [prepared by dissolving 1.5 mg (25 U) poly r(C).oligo d(G) in 1.5 ml sterile distilled H2 O and diluting to 400 μg/ml], 0.1 μCi/μl [^3 H] dGTP, 160 μM dGTP, was added to 10 μl sterile distilled H2 O, 2.5 μl of potential inhibitor. Ten μL of 3.2 nM purified HIV RTR were added to start the reaction. The mixture was incubated at 37° C. for 45 minutes.
After incubation was complete, the tubes were cooled in ice for 5 minutes. Ice-cold 13% TCA containing 10 mM NaPPi (200 μl) was added and the mixture incubated on ice for 30 minutes. The precipitated cDNA was removed by filtration using presoaked glass filters [TCA, NaPPi ]. The precipitate was then washed with 1N HCl, 10 mM NaPPi. The filter discs were then counted in a Packard scintillation counter.
Under these conditions [dGTP] and poly r(C).oligo d(G)12-18 each are approximately equal to the appropriate Km value. Approximately 5-6,000 cpm of [^3 H] GMP are incorporated into acid-precipitable material. The RT reaction is concentration- and time-dependent.

| SMILES | inhibition of incorporation of deoxyguanosine monophosphate by HIV reverse transcriptase (in words) | IC50 [µM] |
| --- | --- | --- |
| CCc1cc(CCc2nc3ccccc3o2)c(=O)[nH]c1CO [Compound (II), 3-[2-(benzoxazol-2-yl)ethyl]-5-ethyl-6-hydroxymethyl-2(1H)-pyridinone] | inhibit this incorporation | ~0.044 |
| Cc1[nH]c(=O)c(CCc2nc3ccccc3o2)cc1C(C)O (racemic) [Compound (I), (+/-)-3-[2-(benzoxazol-2-yl)ethyl]-5-(1-hydroxyethyl)-6-methyl-2(1H)-pyridinone] | inhibit this incorporation | ~18.7 |
